Results reported in ChEMBL document CHEMBL1201862, “PubChem BioAssay data set” (2004).
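Results reflect a 48-hour exposure of cells in 96-well plates to compound at five concentrations. Abbreviation: GI50, concentration required for 50% inhibition of growth.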 Activity calls are given as the source filed them. No stated cut-off is given here; in the data, active = GI50 up to about 1.1 µM and inactive = higher.

Experiments:
Assay in all cases: NCI anticancer screen, dose series, 48 h
786-0 = tested on: 786-0
A498 = tested on: A498
A549 = tested on: A549
ACHN = tested on: ACHN
CCRF-CEM = tested on: CCRF-CEM
COLO 205 = tested on: COLO 205
DLD-1 = tested on: DLD-1
DMS-114 = tested on: DMS-114
DMS-273 = tested on: DMS-273
EKVX = tested on: EKVX
HCC 2998 = tested on: HCC 2998
HCT-116 = tested on: HCT-116
HL-60 = tested on: HL-60
HOP-18 = tested on: HOP-18
HOP-62 = tested on: HOP-62
HOP-92 = tested on: HOP-92
HT-29 = tested on: HT-29
IGROV-1 = tested on: IGROV-1
K562 = tested on: K562
KM-20L2 = tested on: KM-20L2
KM12 = tested on: KM12
LOX IMVI = tested on: LOX IMVI
LXFL 529 = tested on: LXFL 529
M19-MEL = tested on: M19-MEL
MOLT-4 = tested on: MOLT-4
Malme-3M = tested on: Malme-3M
NCI-H23 = tested on: NCI-H23
NCI-H460 = tested on: NCI-H460
NCI-H522 = tested on: NCI-H522
OVCAR-3 = tested on: OVCAR-3
OVCAR-5 = tested on: OVCAR-5
OVCAR-8 = tested on: OVCAR-8
RPMI-8226 = tested on: RPMI-8226
RXF 393 = tested on: RXF 393
SF-268 = tested on: SF-268
SF-295 = tested on: SF-295
SF-539 = tested on: SF-539
SK-MEL-28 = tested on: SK-MEL-28
SK-MEL-2 = tested on: SK-MEL-2
SK-MEL-5 = tested on: SK-MEL-5
SK-OV-3 = tested on: SK-OV-3
SNB-19 = tested on: SNB-19
SNB-75 = tested on: SNB-75
SNB-78 = tested on: SNB-78
SW-620 = tested on: SW-620
TK-10 = tested on: TK-10
U-251 = tested on: U-251
UACC-257 = tested on: UACC-257
UO-31 = tested on: UO-31
XF498 = tested on: XF498
HCT-15 = tested on: HCT-15
M14 = tested on: M14
NCI-H226 = tested on: NCI-H226
OVCAR-4 = tested on: OVCAR-4
SN12C = tested on: SN12C
SR = tested on: SR
UACC-62 = tested on: UACC-62
CAKI-1 = tested on: CAKI-1
MCF7 = tested on: MCF7
NCI/ADR-RES = tested on: NCI/ADR-RES

Structure (SMILES): CCOC(=O)CCC1(C(=O)OCC)CCCCC1=O (configuration not stated)
- GI50 (786-0): > 100 µM (inactive)
- GI50 (A498): > 100 µM (inactive)
- GI50 (A549): > 100 µM (inactive)
- GI50 (ACHN): > 100 µM (inactive)
- GI50 (CCRF-CEM): > 100 µM (inactive)
- GI50 (COLO 205): > 100 µM (inactive)
- GI50 (DLD-1): > 100 µM (inactive)
- GI50 (DMS-114): > 100 µM (inactive)
- GI50 (DMS-273): > 100 µM (inactive)
- GI50 (EKVX): > 100 µM (inactive)
- GI50 (HCC 2998): > 100 µM (inactive)
- GI50 (HCT-116): > 100 µM (inactive)
- GI50 (HL-60): > 100 µM (inactive)
- GI50 (HOP-18): 81.8 µM (inactive)
- GI50 (HOP-62): > 100 µM (inactive)
- GI50 (HOP-92): > 100 µM (inactive)
- GI50 (HT-29): > 100 µM (inactive)
- GI50 (IGROV-1): > 100 µM (inactive)
- GI50 (K562): > 100 µM (inactive)
- GI50 (KM-20L2): > 100 µM (inactive)
- GI50 (KM12): > 100 µM (inactive)
- GI50 (LOX IMVI): > 100 µM (inactive)
- GI50 (LXFL 529): > 100 µM (inactive)
- GI50 (M19-MEL): > 100 µM (inactive)
- GI50 (MOLT-4): > 100 µM (inactive)
- GI50 (Malme-3M): > 100 µM (inactive)
- GI50 (NCI-H23): > 100 µM (inactive)
- GI50 (NCI-H460): > 100 µM (inactive)
- GI50 (NCI-H522): > 100 µM (inactive)
- GI50 (OVCAR-3): > 100 µM (inactive)
- GI50 (OVCAR-5): > 100 µM (inactive)
- GI50 (OVCAR-8): > 100 µM (inactive)
- GI50 (RPMI-8226): > 100 µM (inactive)
- GI50 (RXF 393): > 100 µM (inactive)
- GI50 (SF-268): > 100 µM (inactive)
- GI50 (SF-295): > 100 µM (inactive)
- GI50 (SF-539): > 100 µM (inactive)
- GI50 (SK-MEL-28): > 100 µM (inactive)
- GI50 (SK-MEL-2): > 100 µM (inactive)
- GI50 (SK-MEL-5): > 100 µM (inactive)
- GI50 (SK-OV-3): > 100 µM (inactive)
- GI50 (SNB-19): > 100 µM (inactive)
- GI50 (SNB-75): > 100 µM (inactive)
- GI50 (SNB-78): > 100 µM (inactive)
- GI50 (SW-620): > 100 µM (inactive)
- GI50 (TK-10): > 100 µM (inactive)
- GI50 (U-251): > 100 µM (inactive)
- GI50 (UACC-257): > 100 µM (inactive)
- GI50 (UO-31): > 100 µM (inactive)
- GI50 (XF498): > 100 µM (inactive)

Structure (SMILES): COc1cc(CO)cc2c1[nH]c1ccccc12 [KOENOLINE]
- GI50 (786-0): > 25 µM (inactive)
- GI50 (A549): > 25 µM (inactive)
- GI50 (ACHN): > 25 µM (inactive)
- GI50 (CCRF-CEM): > 25 µM (inactive)
- GI50 (COLO 205): > 25 µM (inactive)
- GI50 (DLD-1): > 25 µM (inactive)
- GI50 (DMS-114): > 25 µM (inactive)
- GI50 (DMS-273): > 25 µM (inactive)
- GI50 (HCC 2998): > 25 µM (inactive)
- GI50 (HCT-116): > 25 µM (inactive)
- GI50 (HCT-15): > 25 µM
- GI50 (HL-60): > 25 µM (inactive)
- GI50 (HOP-18): > 25 µM (inactive)
- GI50 (HOP-62): > 25 µM (inactive)
- GI50 (HOP-92): > 25 µM (inactive)
- GI50 (HT-29): > 25 µM (inactive)
- GI50 (IGROV-1): > 25 µM (inactive)
- GI50 (K562): 11.9 µM (inactive)
- GI50 (KM-20L2): > 25 µM (inactive)
- GI50 (KM12): > 25 µM (inactive)
- GI50 (LOX IMVI): > 25 µM (inactive)
- GI50 (LXFL 529): > 25 µM (inactive)
- GI50 (M14): > 25 µM (inactive)
- GI50 (M19-MEL): > 25 µM (inactive)
- GI50 (MOLT-4): > 25 µM (inactive)
- GI50 (Malme-3M): > 25 µM (inactive)
- GI50 (NCI-H226): 1.73 µM (inactive)
- GI50 (NCI-H460): 24.4 µM (inactive)
- GI50 (NCI-H522): 24.6 µM (inactive)
- GI50 (OVCAR-3): > 25 µM (inactive)
- GI50 (OVCAR-4): > 25 µM (inactive)
- GI50 (OVCAR-5): 20.8 µM (inactive)
- GI50 (OVCAR-8): > 25 µM (inactive)
- GI50 (RPMI-8226): > 25 µM (inactive)
- GI50 (RXF 393): > 25 µM (inactive)
- GI50 (SF-268): > 25 µM (inactive)
- GI50 (SF-539): > 25 µM (inactive)
- GI50 (SK-MEL-28): > 25 µM (inactive)
- GI50 (SK-MEL-2): > 25 µM (inactive)
- GI50 (SK-MEL-5): > 25 µM (inactive)
- GI50 (SK-OV-3): > 25 µM (inactive)
- GI50 (SN12C): > 25 µM (inactive)
- GI50 (SNB-19): > 25 µM (inactive)
- GI50 (SNB-78): > 25 µM (inactive)
- GI50 (SR): > 25 µM (inactive)
- GI50 (SW-620): > 25 µM (inactive)
- GI50 (TK-10): > 25 µM (inactive)
- GI50 (U-251): > 25 µM (inactive)
- GI50 (UACC-62): > 25 µM (inactive)
- GI50 (UO-31): > 25 µM (inactive)
- GI50 (XF498): > 25 µM (inactive)

Structure (SMILES): O=C(NC(Cc1ccc(Cl)cc1)C(=O)O)c1ccc(I)cc1 (configuration not stated)
- GI50 (A498): > 100 µM (inactive)
- GI50 (A549): > 100 µM (inactive)
- GI50 (CAKI-1): > 100 µM (inactive)
- GI50 (CCRF-CEM): > 100 µM (inactive)
- GI50 (COLO 205): > 100 µM (inactive)
- GI50 (DLD-1): > 100 µM (inactive)
- GI50 (DMS-273): > 100 µM (inactive)
- GI50 (HCC 2998): 3.42 µM (inactive)
- GI50 (HCT-116): > 100 µM (inactive)
- GI50 (HCT-15): > 100 µM
- GI50 (HL-60): > 100 µM (inactive)
- GI50 (HOP-18): > 100 µM (inactive)
- GI50 (HOP-62): > 100 µM (inactive)
- GI50 (HOP-92): > 83.4 µM (inactive)
- GI50 (HT-29): > 100 µM (inactive)
- GI50 (IGROV-1): > 100 µM (inactive)
- GI50 (K562): > 100 µM (inactive)
- GI50 (KM12): > 100 µM (inactive)
- GI50 (LOX IMVI): > 100 µM (inactive)
- GI50 (M19-MEL): > 100 µM (inactive)
- GI50 (MCF7): > 67 µM (inactive)
- GI50 (MOLT-4): > 75.9 µM (inactive)
- GI50 (Malme-3M): > 100 µM (inactive)
- GI50 (NCI-H226): > 100 µM (inactive)
- GI50 (NCI-H23): > 100 µM (inactive)
- GI50 (NCI-H460): > 100 µM (inactive)
- GI50 (NCI-H522): > 83.2 µM (inactive)
- GI50 (NCI/ADR-RES): > 100 µM (inactive)
- GI50 (OVCAR-3): 76.7 µM (inactive)
- GI50 (OVCAR-4): > 100 µM (inactive)
- GI50 (OVCAR-5): > 100 µM (inactive)
- GI50 (OVCAR-8): > 100 µM (inactive)
- GI50 (RPMI-8226): 84.7 µM (inactive)
- GI50 (RXF 393): > 100 µM (inactive)
- GI50 (SF-268): > 100 µM (inactive)
- GI50 (SF-295): > 100 µM (inactive)
- GI50 (SF-539): > 100 µM (inactive)
- GI50 (SK-MEL-28): > 100 µM (inactive)
- GI50 (SK-MEL-2): > 100 µM (inactive)
- GI50 (SK-MEL-5): > 100 µM (inactive)
- GI50 (SK-OV-3): > 100 µM (inactive)
- GI50 (SN12C): > 100 µM (inactive)
- GI50 (SNB-19): > 100 µM (inactive)
- GI50 (SNB-75): 86.3 µM (inactive)
- GI50 (SNB-78): > 100 µM (inactive)
- GI50 (SW-620): > 100 µM (inactive)
- GI50 (U-251): > 100 µM (inactive)
- GI50 (UACC-257): > 100 µM (inactive)
- GI50 (UACC-62): 64.9 µM (inactive)
- GI50 (UO-31): > 100 µM (inactive)
- GI50 (XF498): > 64.4 µM (inactive)
